Peptide text beside a SMILES is read from it. * marks the point of attachment. Tos = Cc1ccc(S(=O)(=O)*)cc1; Isobutyryl = CC(C)C(=O)*; Pentanoyl = CCCCC(=O)*; PhAc = O=C(Cc1ccccc1)*; Piv = CC(C)(C)C(=O)*; Bz = O=C(c1ccccc1)*
Biological target: T1, human granulocyte elastase (Homo sapiens, UniProt P08246)
T1 sequence (P08246 30-267): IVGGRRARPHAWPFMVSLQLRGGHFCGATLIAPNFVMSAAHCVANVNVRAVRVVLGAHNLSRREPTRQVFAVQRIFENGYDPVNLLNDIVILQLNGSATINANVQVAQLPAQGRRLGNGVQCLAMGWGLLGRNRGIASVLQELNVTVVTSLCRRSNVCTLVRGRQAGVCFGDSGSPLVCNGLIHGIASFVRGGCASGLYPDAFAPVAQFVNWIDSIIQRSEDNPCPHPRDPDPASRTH
Assay: in vitro elastase inhibition, test method of Visser and Blout
Format: biochemical
Conditions: human granulocyte elastase as the enzyme; read-out: I50 (concentration which gives 50% inhibition of the human granulocyte elastase)
Text: Acta 268 (1972) 257, using porcine pancreatic elastase as the enzyme. The results obtained with representative dipeptide derivatives in this test are given in Table I hereinafter, the Ki being the inhibitor constant in millimoles per liter:
The result obtained with a representative dipeptide derivative in this test is given in Table II hereinafter, the I50 being the concentration in millimoles per liter which gives 50% inhibition of the human granulocyte elastase: […]

| SMILES | IC50 [µM] |
| --- | --- |
| CCNC(=O)[C@@H]1CCCN1C(=O)[C@H](C)NS(=O)(=O)c1ccc(C)cc1 [N-(p-Toluenesulphonyl)-L-alanyl-L-proline ethylamide] (Tos-Ala-Pro-NHEt) | 900 |

Biological target: porcine pancreatic elastase (Sus scrofa, UniProt P00772)
Sequence (P00772 27-266): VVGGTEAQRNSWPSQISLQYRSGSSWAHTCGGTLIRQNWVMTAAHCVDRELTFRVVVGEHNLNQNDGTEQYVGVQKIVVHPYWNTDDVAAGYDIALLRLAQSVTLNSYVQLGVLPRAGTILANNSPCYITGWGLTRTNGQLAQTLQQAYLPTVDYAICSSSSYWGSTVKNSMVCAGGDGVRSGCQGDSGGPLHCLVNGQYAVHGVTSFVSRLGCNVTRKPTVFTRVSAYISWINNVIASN
Assay: as above
Format: biochemical
Conditions: porcine pancreatic elastase as the enzyme; read-out: Ki (inhibitor constant)
Text: Acta 268 (1972) 257, using porcine pancreatic elastase as the enzyme. The results obtained with representative dipeptide derivatives in this test are given in Table I hereinafter, the Ki being the inhibitor constant in millimoles per liter: […]

| SMILES | Ki [µM] |
| --- | --- |
| CCNC(=O)[C@@H]1CCCN1C(=O)[C@H](C)NC(=O)C1CCCCC1 [N-Cyclohexylcarbonyl-L-alanyl-L-proline ethylamide] | 10 |
| CCNC(=O)[C@@H]1CCCN1C(=O)[C@H](C)NC(=O)Cc1ccccc1 [N-Phenacetyl-L-alanyl-L-proline ethylamide] (PhAc-Ala-Pro-NHEt) | 86 |
| CCNC(=O)[C@@H]1CCCN1C(=O)[C@H](C)NC(=O)C(C)C [N-Isobutanoyl-L-alanyl-L-proline ethylamide] (Isobutyryl-Ala-Pro-NHEt) | 60 |
| CCNC(=O)[C@@H]1CCCN1C(=O)[C@H](C)NC(=O)c1ccccc1 [N-Benzoyl-L-alanyl-L-proline ethylamide] (Bz-Ala-Pro-NHEt) | 26 |
| CCNC(=O)[C@H](C)NC(=O)[C@H](C)NC(=O)c1ccccc1 [N-Benzoyl-L-alanyl-L-alanine ethylamide] (Bz-Ala-Ala-NHEt) | 120 |
| CCNC(=O)[C@@H]1CCCN1C(=O)[C@H](C)NC(=O)C(C)(C)C [N-Pivaloyl-L-alanyl-L-proline ethylamide] (Piv-Ala-Pro-NHEt) | 90 |
| CCCCC(=O)N[C@@H](C)C(=O)N1CCC[C@H]1C(=O)NCC [N-(n-Valeryl)-L-alanyl-L-proline ethylamide] (Pentanoyl-Ala-Pro-NHEt) | 80 |

— patent US4176116A, “Dipeptide derivatives” (Hoffmann-La Roche Inc., priority 1976, dated 1979)
